In patent publication US11051515B2, “3-acyl-benzamides and their use as herbicides” (Bayer Aktiengesellschaft, priority 2017, dated 2021):

Assays:
PHBPU [1] = assay: Pre-emergence action against PHBPU; format: in vivo, Pharbitis purpurea; conditions: Dosage 320 g/ha, pre-emergence
Outline: (§1)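 Seeds sown in sandy loam in wood-fiber pots and covered with soil. Greenhouse growth; visual damage scored after 3 weeks versus untreated controls (100% = dead, 0% = like control).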

SETVI [2] = assay: Post-emergence action against SETVI; format: in vivo, Setaria viridis; conditions: post-emergence, dosage 80 g/ha, visual assessment about 3 weeks after treatment vs untreated controls
Outline: (§2)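 Post-emergence foliar spray on greenhouse plants at the one-leaf stage, using wettable-powder or emulsion-concentrate formulations in water (600 to […], plus 0.2% wetting agent). Damage scored by eye roughly 3 weeks later against untreated plants: 0% = like control, 100% = dead.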

CYPES [3] = assay: Post-emergence action against CYPES; format: in vivo, Cyperus esculentus; conditions: post-emergence, dosage 80 g/ha, visual assessment about 3 weeks after treatment vs untreated controls
Outline: as §2

VIOTR [4] = assay: Post-emergence action against VIOTR; format: in vivo, Viola tricolor; conditions: post-emergence, dosage 80 g/ha
Outline: as §2

CYPES [5] = assay: Pre-emergence action against CYPES; format: in vivo, Cyperus esculentus; conditions: pre-emergence, dosage 320 g/ha, scored visually after 3 weeks vs untreated controls
Outline: as §1

ECHCG [6] = assay: Pre-emergence action against ECHCG; format: in vivo, Echinochloa crus-galli; conditions: pre-emergence, dosage 320 g/ha, scored visually after 3 weeks vs untreated controls
Outline: as §1

AVEFA [7] = assay: Post-emergence action against AVEFA; format: in vivo, Avena fatua; conditions: post-emergence, dosage 80 g/ha, visual assessment about 3 weeks after treatment vs untreated controls
Procedure: (§3) Seeds of monocotyledonous and dicotyledonous weed and crop plants are laid out in sandy loam soil in wood-fiber pots, covered with soil and cultivated in a greenhouse under good growth conditions. 2 to 3 weeks after sowing, the test plants are treated at the one-leaf stage. The compounds of the invention, formulated in the form of wettable powders (WP) or as emulsion concentrates (EC), are then sprayed onto the green parts of the plants in the form of an aqueous suspension or emulsion at a water application rate equating to […], with addition of 0.2% wetting agent. After the test plants have been left to stand in the greenhouse under optimal growth conditions for about 3 weeks, the action of the preparations is assessed visually in comparison to untreated controls (herbicidal action in percent (%): 100% activity=the plants have died, 0% activity=like control plants). […] At the same time, inventive compounds leave Gramineae crops such as barley, wheat, rye, millet/Sorghum, corn or rice virtually undamaged when applied post-emergence, even at high active ingredient dosages. In addition, some substances are also harmless to dicotyledonous crops such as soya, cotton, oilseed rape, sugar beet or potatoes. Some of the compounds according to the invention have high selectivity and are therefore suitable for controlling unwanted vegetation in agricultural crops by the post-emergence method. The data of Tables B18 to B34 below illustrate, in an exemplary manner, the […] herbicidal action of the compounds according to the invention, the herbicidal activity being stated in percent.

ALOMY [8] = assay: Pre-emergence action against ALOMY; format: in vivo, Alopecurus myosuroides; conditions: dosage 320 g/ha; pre-emergence; scored visually after 3 weeks vs untreated controls; 100% = plants have died, 0% = like control plants
Outline: as §1

AMARE [9] = assay: Pre-emergence action against AMARE; format: in vivo, Amaranthus retroflexus; conditions: pre-emergence, dosage 320 g/ha, scored visually after 3 weeks vs untreated controls
Outline: as §1

POLCO = assay: Pre-emergence action against POLCO; format: in vivo, Polygonum convolvulus; conditions: Dosage 320 g/ha, pre-emergence
Outline: as §1

ALOMY [10] = assay: Post-emergence action against ALOMY; format: in vivo, Alopecurus myosuroides; conditions: Dosage 80 g/ha, post-emergence
Procedure: as §3

ECHCG [11] = assay: Post-emergence action against ECHCG; format: in vivo, Echinochloa crus-galli; conditions: post-emergence, dosage 80 g/ha, visual assessment about 3 weeks after treatment vs untreated controls
Outline: as §2

AVEFA [12] = assay: Pre-emergence action against AVEFA; format: in vivo, Avena fatua; conditions: dosage 320 g/ha, scored visually after 3 weeks vs untreated controls
Outline: as §1

ABUTH [13] = assay: Post-emergence action against ABUTH; format: in vivo, Abutilon theophrasti; conditions: post-emergence, dosage 80 g/ha, visual assessment about 3 weeks after treatment vs untreated controls
Outline: as §2

STEME [14] = assay: Post-emergence action against STEME; format: in vivo, Stellaria media; conditions: post-emergence, dosage 80 g/ha
Outline: as §2

VERPE [15] = assay: Pre-emergence action against VERPE; format: in vivo, Veronica persica; conditions: Dosage 320 g/ha, pre-emergence
Outline: as §1

STEME [16] = assay: Pre-emergence action against STEME; format: in vivo, Stellaria media; conditions: Dosage 320 g/ha, pre-emergence
Outline: as §1

VERPE [17] = assay: Post-emergence action against VERPE; format: in vivo, Veronica persica; conditions: dosage 80 g/ha
Outline: as §2

ABUTH [18] = assay: Pre-emergence action against ABUTH; format: in vivo, Abutilon theophrasti; conditions: pre-emergence, dosage 320 g/ha, scored visually after 3 weeks vs untreated controls
Outline: as §1

VIOTR [19] = assay: Pre-emergence action against VIOTR; format: in vivo, Viola tricolor; conditions: Dosage 320 g/ha, pre-emergence
Outline: as §1

MATIN [20] = assay: Post-emergence action against MATIN; format: in vivo, Matricaria inodora; conditions: post-emergence, dosage 80 g/ha, visual assessment about 3 weeks after treatment vs untreated controls
Outline: as §2

MATIN [21] = assay: Pre-emergence action against MATIN; format: in vivo, Matricaria inodora; conditions: Dosage 320 g/ha, pre-emergence
Outline: as §1

PHBPU [22] = assay: Post-emergence action against PHBPU; format: in vivo, Pharbitis purpurea; conditions: post-emergence, dosage 80 g/ha
Outline: as §2

AMARE [23] = assay: Post-emergence action against AMARE; format: in vivo, Amaranthus retroflexus; conditions: post-emergence, dosage 80 g/ha, visual assessment about 3 weeks after treatment vs untreated controls
Outline: as §2

SETVI [24] = assay: Pre-emergence action against SETVI; format: in vivo, Setaria viridis; conditions: pre-emergence, dosage 320 g/ha, scored visually after 3 weeks vs untreated controls
Outline: as §1

SMILES: CCn1nnnc1NC(=O)c1ccc(SC)c(C(C)=O)c1Cl [2-121]
- Pre-emergence action against PHBPU (PHBPU [1]): 80%
- Post-emergence action against SETVI (herbicidal action in percent) (SETVI [2]): 90%
- Post-emergence action against CYPES (herbicidal action in percent) (CYPES [3]): 80%
- Post-emergence action against VIOTR (VIOTR [4]): 100
- Pre-emergence action against CYPES (herbicidal activity) (CYPES [5]): 90%
- Pre-emergence action against ECHCG (herbicidal activity) (ECHCG [6]): 100%
- Post-emergence action against AVEFA (herbicidal action in percent) (AVEFA [7]): 80%
- Pre-emergence action against ALOMY (herbicidal activity in percent) (ALOMY [8]): 90%
- Pre-emergence action against AMARE (herbicidal activity) (AMARE [9]): 100%
- Pre-emergence action against POLCO (POLCO): 100%
- Post-emergence action against ALOMY (ALOMY [10]): 80%
- Post-emergence action against ECHCG (herbicidal action in percent) (ECHCG [11]): 100%
- Pre-emergence action against AVEFA (herbicidal activity) (AVEFA [12]): 90%
- Post-emergence action against ABUTH (herbicidal action in percent) (ABUTH [13]): 100%
- Post-emergence action against STEME (STEME [14]): 90
- Pre-emergence action against VERPE (VERPE [15]): 100%
- Pre-emergence action against STEME (STEME [16]): 90%
- Post-emergence action against VERPE (VERPE [17]): 100
- Pre-emergence action against ABUTH (herbicidal activity) (ABUTH [18]): 100%
- Pre-emergence action against VIOTR (VIOTR [19]): 100%
- Post-emergence action against MATIN (herbicidal action in percent) (MATIN [20]): 100%
- Pre-emergence action against MATIN (MATIN [21]): 100%
- Post-emergence action against PHBPU (PHBPU [22]): 90
- Post-emergence action against AMARE (herbicidal action in percent) (AMARE [23]): 100%
- SETVI (Table B8, pre-emergence herbicidal activity) (SETVI [24]): 90%
